# Measured values published in patent publication US6645918B1, “N-([1,2,4]triazoloazinyl)thiophenesulfonamide compounds and their use as herbicides” (Dow AgroSciences LLC, priority 2000, dated 2003).
# Legend:
# Assay type in all cases: in vivo
# [1] = test system: chickweed (Stellaria media); experiment: Postemergence herbicidal activity, chickweed; settings: foliar spray, visual after 2 weeks, 0 no injury, 100 complete kill
# Description: (§1) Seeds of the desired test plant species were planted in Grace-Sierra MetroMix® 306 planting mixture, which typically has a pH of 6.0 to 6.8 and an organic matter content of about 30 percent, in plastic pots with a surface area of 64 square centimeters. When required to ensure good germination and healthy plants, a fungicide treatment and/or other chemical or physical treatment was applied. The plants were grown for 7-21 days in a greenhouse with an approximately 15 hr photoperiod which was maintained at about 23-29° C. during the day and 22-28° C. during the night. Nutrients and water were added on a regular basis and supplemental lighting was provided with overhead metal halide 1000 Watt lamps as necessary. The plants were employed for testing when they reached the first or second true leaf stage. A weighed amount of each test compound, determined by the highest rate to be tested, was placed in a 20 mL glass vial and was dissolved in 4 mL of a 97:3 v/v (volume/volume) mixture of acetone and dimethyl sulfoxide to obtain concentrated stock solutions. […] The concentrated stock solutions obtained were diluted with an aqueous mixture containing acetone, water, iso-propyl alcohol, dimethyl sulfoxide, Atplus 411F crop oil concentrate, and Triton X-155 surfactant (methylenebisdiamyl phenoxy polyethoxy ethanol) in a 48.5:39:10:1.5:1.0:0.02 v/v ratio to obtain spray solutions of known concentration. The solutions containing the highest concentration to be tested were prepared by diluting 2 mL aliquots of the stock solution with 13 mL of the mixture and lower concentrations were prepared by dilution of appropriate smaller portions of the stock solution. Approximately 1.5 mL aliquots of each solution of known concentration were sprayed evenly onto each of the test plant pots using a DeVilbiss atomizer driven by compressed air pressure of 2 to 4 psi (140 to 280 kilopascals) to obtain thorough coverage of each plant. Control plants were sprayed in the same manner with the aqueous mixture. In this test an application rate of 1 ppm results in the application of approximately 1 g/ha. The treated plants and control plants were placed in a greenhouse as described above and watered by sub-irrigation to prevent wash-off of the test compounds. After 2 weeks the condition of the test plants as compared with that of the untreated plants was determined visually and scored on a scale of 0 to 100 percent where 0 corresponds to no injury and 100 corresponds to complete kill.
# [2] = test system: cocklebur (Xanthium strumarium); experiment: Postemergence herbicidal activity, cocklebur; settings: foliar spray, visual after 2 weeks, 0 no injury, 100 complete kill
# Description: as §1
# [3] = test system: lambsquarters (Chenopodium album); experiment: Postemergence herbicidal activity, lambsquarters; settings: foliar spray, visual after 2 weeks, 0 no injury, 100 complete kill
# Description: as §1
# [4] = test system: morningglory (Ipomoea hederacea); experiment: Postemergence herbicidal activity, morningglory; settings: foliar spray, visual after 2 weeks, 0 no injury, 100 complete kill
# Description: as §1
# [5] = test system: pigweed (Amaranthus retroflexus); experiment: Postemergence herbicidal activity, pigweed; settings: foliar spray, visual after 2 weeks, 0 no injury, 100 complete kill
# Description: as §1
# [6] = test system: velvetleaf (Abutilion theophrasti); experiment: Postemergence herbicidal activity, velvetleaf; settings: foliar spray, visual after 2 weeks, 0 no injury, 100 complete kill
# Description: as §1
# viola (Viola tricolor) = experiment: Postemergence herbicidal activity, viola; settings: foliar spray, visual after 2 weeks, 0 no injury, 100 complete kill
# Description: as §1
# [7] = test system: wild buckwheat (Polygonum convolvulus); experiment: Postemergence herbicidal activity, wild buckwheat; settings: foliar spray, visual after 2 weeks, 0 no injury, 100 complete kill
# Description: as §1
# [8] = test system: blackgrass (Alopecurus myosuroides); experiment: Postemergence herbicidal activity, blackgrass; settings: foliar spray, visual after 2 weeks, 0 no injury, 100 complete kill
# Description: as §1
# [9] = test system: giant foxtail (Setaria faberi); experiment: Postemergence herbicidal activity, giant foxtail; settings: foliar spray, visual after 2 weeks, 0 no injury, 100 complete kill
# Description: as §1
# [10] = test system: Rox orange sorghum (Sorghum bicolor); experiment: Postemergence herbicidal activity, Rox orange sorghum; settings: foliar spray, visual after 2 weeks, 0 no injury, 100 complete kill
# Description: as §1
# wild oats (Avena fatua) [11] = experiment: Postemergence herbicidal activity, wild oats; settings: foliar spray, visual after 2 weeks, 0 no injury, 100 complete kill
# Description: as §1
# [12] = test system: cocklebur (Xanthium strumarium); experiment: Preemergence herbicidal activity, cocklebur; settings: soil spray, visual after 3 weeks, 0 no injury, 100 complete kill or no germination
# Description: (§2) The soil matrix was contained in plastic pots with a surface area of 161 square centimeters. When required to ensure good germination and healthy plants, a fungicide treatment and/or other chemical or physical treatment was applied. A weighed amount, determined by the highest rate to be tested, of each test compound was placed in a 20 mL glass vial and was dissolved in 8 mL of a 97:3 v/v (volume/volume) mixture of acetone and dimethyl sulfoxide to obtain concentrated stock solutions. […] The stock solutions obtained were diluted with a 99.9:0.1 mixture of water and Tween® 155 surfactant (ethoxylated sorbitan fatty acid ester) to obtain application solutions of known concentration. The solutions containing the highest concentration to be tested were prepared by diluting 4 mL aliquots of the stock solution with 8.5 mL of the mixture and lower concentrations were prepared by dilution of appropriate smaller portions of the stock solution. A 2.5 mL aliquot of each solution of known concentration was sprayed evenly onto the soil of each seeded pot using a Cornwall 5.0 mL glass syringe fitted with a TeeJet TN-3 hollow cone nozzle to obtain thorough coverage of the soil in each pot. Control pots were sprayed in the same manner with the aqueous mixture. A highest application rate of 4.48 kg/ha is achieved when 50 mg of test compound is employed. The treated pots and control pots were placed in a greenhouse with an approximately 15 hr photoperiod which was maintained at about 23-29° C. during the day and 22-28° C. during the night. Nutrients and water were added on a regular basis and supplemental lighting was provided with overhead metal halide 1000 Watt lamps as necessary. The water was added by top-irrigation. After 3 weeks the condition of the test plants that germinated and grew as compared with that of the untreated plants that germinated and grew was determined visually and scored on a scale of 0 to 100 percent where 0 corresponds to no injury and 100 corresponds to complete kill or no germination.
# [13] = test system: lambsquarters (Chenopodium album); experiment: Preemergence herbicidal activity, lambsquarters; settings: soil spray, visual after 3 weeks, 0 no injury, 100 complete kill or no germination
# Description: as §2
# [14] = test system: morningglory (Ipomoea hederacea); experiment: Preemergence herbicidal activity, morningglory; settings: soil spray, visual after 3 weeks, 0 no injury, 100 complete kill or no germination
# Description: as §2
# [15] = test system: pigweed (Amaranthus retroflexus); experiment: Preemergence herbicidal activity, pigweed; settings: soil spray, visual after 3 weeks, 0 no injury, 100 complete kill or no germination
# Description: as §2
# [16] = test system: velvetleaf (Abutilion theophrasti); experiment: Preemergence herbicidal activity, velvetleaf; settings: soil spray, visual after 3 weeks, 0 no injury, 100 complete kill or no germination
# Description: as §2
# [17] = test system: wild poinsettia (Euphorbia heterophylla); experiment: Preemergence herbicidal activity, wild poinsettia; settings: soil spray, visual after 3 weeks, 0 no injury, 100 complete kill or no germination
# Description: as §2
# [18] = test system: blackgrass (Alopecurus myosuroides); experiment: Preemergence herbicidal activity, blackgrass; settings: soil spray, visual after 3 weeks, 0 no injury, 100 complete kill or no germination
# Description: as §2
# [19] = test system: barnyardgrass (Echinochloa crus-galli); experiment: Preemergence herbicidal activity, barnyardgrass; settings: soil spray, visual after 3 weeks, 0 no injury, 100 complete kill or no germination
# Description: as §2
# [20] = test system: crabgrass (Digitaria sanguinalis); experiment: Preemergence herbicidal activity, crabgrass; settings: soil spray, visual after 3 weeks, 0 no injury, 100 complete kill or no germination
# Description: as §2
# [21] = test system: giant foxtail (Setaria faberi); experiment: Preemergence herbicidal activity, giant foxtail; settings: soil spray, visual after 3 weeks, 0 no injury, 100 complete kill or no germination
# Description: as §2
# [22] = test system: Rox orange sorghum (Sorghum bicolor); experiment: Preemergence herbicidal activity, Rox orange sorghum; settings: soil spray, visual after 3 weeks, 0 no injury, 100 complete kill or no germination
# Description: as §2
# wild oats (Avena fatua) [23] = experiment: Preemergence herbicidal activity, wild oats; settings: soil spray, visual after 3 weeks, 0 no injury, 100 complete kill or no germination
# Description: as §2
compound,measurement,setting,value
"COc1cnc(OC)n2nc(NS(=O)(=O)c3ccsc3CC(=O)O)nc12 [Compound 6, N-(5,8-dimethoxy[1,2,4]triazolo[1,5-c]pyrimidin-2-yl)-2-carboxymethylthiophene-3-sulfonamide]",STEME postemergence injury score 0-100,[1]; 7.8 ppm,80%
same,XANST postemergence injury score 0-100,[2]; 7.8 ppm,95%
same,CHEAL postemergence injury score 0-100,[3]; 7.8 ppm,80%
same,IPOHE postemergence injury score 0-100,[4]; 7.8 ppm,85%
same,AMARE postemergence injury score 0-100,[5]; 7.8 ppm,100%
same,ABUTH postemergence injury score 0-100,[6]; 7.8 ppm,90%
same,VIOTR postemergence injury score 0-100,viola (Viola tricolor); 7.8 ppm,85%
same,POLCO postemergence injury score 0-100,[7]; 7.8 ppm,85%
same,ALOMY postemergence injury score 0-100,[8]; 7.8 ppm,80%
same,SETFA postemergence injury score 0-100,[9]; 7.8 ppm,98%
same,SORBI postemergence injury score 0-100,[10]; 7.8 ppm,80%
same,AVEFA postemergence injury score 0-100,wild oats (Avena fatua) [11]; 7.8 ppm,70%
same,XANST preemergence injury score 0-100,[12]; 35 g/Ha,70%
same,CHEAL preemergence injury score 0-100,[13]; 35 g/Ha,99%
same,IPOHE preemergence injury score 0-100,[14]; 35 g/Ha,80%
same,AMARE preemergence injury score 0-100,[15]; 35 g/Ha,100%
same,ABUTH preemergence injury score 0-100,[16]; 35 g/Ha,80%
same,EPHHL preemergence injury score 0-100,[17]; 35 g/Ha,70%
same,ALOMY preemergence injury score 0-100,[18]; 35 g/Ha,75%
same,ECHCG preemergence injury score 0-100,[19]; 35 g/Ha,80%
same,DIGSA preemergence injury score 0-100,[20]; 35 g/Ha,100%
same,SETFA preemergence injury score 0-100,[21]; 35 g/Ha,100%
same,SORBI preemergence injury score 0-100,[22]; 35 g/Ha,100%
same,AVEFA preemergence injury score 0-100,wild oats (Avena fatua) [23]; 35 g/Ha,80%
COc1csc(C(F)(F)F)c1S(=O)(=O)Nc1nc2c(OC)cnc(OC)n2n1 [Compound 10],STEME postemergence injury score 0-100,[1]; 15.6 ppm,98%
same,XANST postemergence injury score 0-100,[2]; 15.6 ppm,100%
same,CHEAL postemergence injury score 0-100,[3]; 15.6 ppm,70%
same,IPOHE postemergence injury score 0-100,[4]; 15.6 ppm,80%
same,AMARE postemergence injury score 0-100,[5]; 15.6 ppm,95%
same,ABUTH postemergence injury score 0-100,[6]; 15.6 ppm,90%
same,VIOTR postemergence injury score 0-100,viola (Viola tricolor); 15.6 ppm,90%
same,POLCO postemergence injury score 0-100,[7]; 15.6 ppm,70%
same,ALOMY postemergence injury score 0-100,[8]; 15.6 ppm,50%
same,SETFA postemergence injury score 0-100,[9]; 15.6 ppm,90%
same,SORBI postemergence injury score 0-100,[10]; 15.6 ppm,80%
same,AVEFA postemergence injury score 0-100,wild oats (Avena fatua) [11]; 15.6 ppm,80%
same,CHEAL preemergence injury score 0-100,[13]; 8.8 g/Ha,95%
same,IPOHE preemergence injury score 0-100,[14]; 8.8 g/Ha,80%
same,AMARE preemergence injury score 0-100,[15]; 8.8 g/Ha,100%
same,ABUTH preemergence injury score 0-100,[16]; 8.8 g/Ha,70%
same,EPHHL preemergence injury score 0-100,[17]; 8.8 g/Ha,75%
same,ALOMY preemergence injury score 0-100,[18]; 8.8 g/Ha,90%
same,ECHCG preemergence injury score 0-100,[19]; 8.8 g/Ha,90%
same,DIGSA preemergence injury score 0-100,[20]; 8.8 g/Ha,70%
same,SETFA preemergence injury score 0-100,[21]; 8.8 g/Ha,90%
same,SORBI preemergence injury score 0-100,[22]; 8.8 g/Ha,100%
same,AVEFA preemergence injury score 0-100,wild oats (Avena fatua) [23]; 8.8 g/Ha,90%
CCOc1cscc1S(=O)(=O)Nc1nc2c(OC)ccc(OC)n2n1 [Compound 11],STEME postemergence injury score 0-100,[1]; 15.6 ppm,80%
same,XANST postemergence injury score 0-100,[2]; 15.6 ppm,90%
same,CHEAL postemergence injury score 0-100,[3]; 15.6 ppm,95%
same,IPOHE postemergence injury score 0-100,[4]; 15.6 ppm,70%
same,AMARE postemergence injury score 0-100,[5]; 15.6 ppm,100%
same,ABUTH postemergence injury score 0-100,[6]; 15.6 ppm,85%
same,VIOTR postemergence injury score 0-100,viola (Viola tricolor); 15.6 ppm,75%
same,POLCO postemergence injury score 0-100,[7]; 15.6 ppm,80%
same,ALOMY postemergence injury score 0-100,[8]; 15.6 ppm,75%
same,SETFA postemergence injury score 0-100,[9]; 15.6 ppm,100%
same,SORBI postemergence injury score 0-100,[10]; 15.6 ppm,90%
same,AVEFA postemergence injury score 0-100,wild oats (Avena fatua) [11]; 15.6 ppm,85%
same,XANST preemergence injury score 0-100,[12]; 4.4 g/Ha,50%
same,CHEAL preemergence injury score 0-100,[13]; 4.4 g/Ha,95%
same,IPOHE preemergence injury score 0-100,[14]; 4.4 g/Ha,30%
same,AMARE preemergence injury score 0-100,[15]; 4.4 g/Ha,90%
same,ABUTH preemergence injury score 0-100,[16]; 4.4 g/Ha,80%
same,EPHHL preemergence injury score 0-100,[17]; 4.4 g/Ha,50%
same,ALOMY preemergence injury score 0-100,[18]; 4.4 g/Ha,100%
same,ECHCG preemergence injury score 0-100,[19]; 4.4 g/Ha,10%
same,DIGSA preemergence injury score 0-100,[20]; 4.4 g/Ha,40%
same,SETFA preemergence injury score 0-100,[21]; 4.4 g/Ha,100%
same,SORBI preemergence injury score 0-100,[22]; 4.4 g/Ha,98%
same,AVEFA preemergence injury score 0-100,wild oats (Avena fatua) [23]; 4.4 g/Ha,70%
